# Measured values published in patent US8334382B2, “Substituted biaryl piperazinyl-pyridine analogues” (Neurogen Corporation, priority 2004, dated 2012).
# Biological target: T1, human capsaicin receptor (Homo sapiens, UniProt Q8NER1)
# T1 construct: expressed in transfected cells; host or cells: HEK293, stably transfected with pBK-CMV construct
# Experiment: Calcium mobilization assay, determination of antagonist activity
# Format: cell-based
# Conditions: capsaicin at EC50; cells expressing human capsaicin receptor; Example 6
# Procedure, shortened: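 IC50 is the antagonist level giving a 50% drop in the capsaicin (EC50) calcium signal, read by FLIPR in Fluo-3 AM-loaded stable HEK293 lines bearing full-length human receptor. Compounds at 1-5 µM final were preincubated 0.5-6 h, room temperature, dark, in KRH pH 7.4.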
# T1 sequence (Q8NER1 whole entry): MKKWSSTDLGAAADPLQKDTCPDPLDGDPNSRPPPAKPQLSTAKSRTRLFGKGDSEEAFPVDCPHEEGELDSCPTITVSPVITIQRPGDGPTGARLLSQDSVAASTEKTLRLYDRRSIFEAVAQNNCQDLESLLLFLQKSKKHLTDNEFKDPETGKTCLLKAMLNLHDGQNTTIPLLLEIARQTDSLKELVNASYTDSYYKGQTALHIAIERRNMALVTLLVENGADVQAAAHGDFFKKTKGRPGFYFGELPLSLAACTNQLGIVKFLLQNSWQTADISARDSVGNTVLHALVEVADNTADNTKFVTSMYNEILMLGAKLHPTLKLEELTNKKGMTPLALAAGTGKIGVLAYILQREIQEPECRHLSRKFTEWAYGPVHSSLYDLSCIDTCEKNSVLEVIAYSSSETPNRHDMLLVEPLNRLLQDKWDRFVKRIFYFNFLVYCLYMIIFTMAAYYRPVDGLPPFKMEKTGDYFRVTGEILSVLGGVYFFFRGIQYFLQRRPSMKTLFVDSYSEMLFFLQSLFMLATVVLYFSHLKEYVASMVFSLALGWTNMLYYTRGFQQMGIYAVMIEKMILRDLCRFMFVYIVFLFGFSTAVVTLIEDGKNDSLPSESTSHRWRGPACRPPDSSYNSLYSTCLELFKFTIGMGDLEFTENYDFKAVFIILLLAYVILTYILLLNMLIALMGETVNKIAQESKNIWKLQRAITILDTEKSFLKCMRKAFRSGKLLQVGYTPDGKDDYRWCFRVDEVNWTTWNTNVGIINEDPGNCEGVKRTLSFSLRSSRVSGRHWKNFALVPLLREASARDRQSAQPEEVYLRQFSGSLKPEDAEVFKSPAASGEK
row,IC50 [nM],Compound
1,≤ 1000,"Cc1cc(CO)cnc1N1CCN(c2cc(-c3ccccc3)nc(N3CCCC3C)n2)[C@H](C)C1 (stereo partly drawn) [Example 63, (5-Methyl-6-{3-(R)-methyl-4-[2-(2-methyl-pyrrolidin-1-yl)-6-phenyl-pyrimidin-4-yl]-piperazin-1-yl}-pyridin-3-yl)-methanol]"
2,≤ 1000,"Cc1cccc(-c2cc(N3CCN(c4ncc(CO)cc4C)C[C@H]3C)nc(N3CCCC3C)n2)c1 (stereo partly drawn) [Example 64, (5-Methyl-6-{3-(R)-methyl-4-[2-(2-methyl-pyrrolidin-1-yl)-6-m-tolyl-pyrimidin-4-yl]-piperazin-1-yl}-pyridin-3-yl)-methanol]"
3,≤ 1000,"Cc1cc(CO)cnc1N1CCN(c2cc(-c3ccncc3)nc(N3CCCC3C)n2)[C@H](C)C1 (stereo partly drawn) [Example 65, (5-Methyl-6-{3-(R)-methyl-4-[2-(2-methyl-pyrrolidin-1-yl)-6-pyridin-4-yl-pyrimidin-4-yl]-piperazin-1-yl}-pyridin-3-yl)-methanol]"
4,≤ 1000,"Cc1cc(CO)cnc1N1CCN(c2cc(-c3ccnc(C(C)C)c3)nc(N3CCCC3C)n2)[C@H](C)C1 (stereo partly drawn) [Example 66, (6-{4-[6-(2-Isopropyl-pyridin-4-yl)-2-(2-methyl-pyrrolidin-1-yl)-pyrimidin-4-yl]-3-(R)-methyl-piperazin-1-yl}-5-methyl-pyridin-3-yl)-methanol]"
5,≤ 1000,"Cc1cc(CO)cnc1N1CCN(c2cc(-c3ccc(F)cc3)nc(N(C)C)n2)[C@H](C)C1 [Example 67, (6-{4-[2-Dimethylamino-6-(4-fluoro-phenyl)-pyrimidin-4-yl]-3-(R)-methyl-piperazin-1-yl}-5-methyl-pyridin-3-yl)-methanol]"
6,≤ 1000,"Cc1cc(C(=O)O)cnc1N1CCN(c2cc(-c3ccccc3)nc(N3CCCC3C)n2)[C@H](C)C1 (stereo partly drawn) [Example 68, 5-Methyl-6-{3-(R)-methyl-4-[2-(2-methyl-pyrrolidin-1-yl)-6-phenyl-pyrimidin-4-yl]-piperazin-1-yl}-nicotinic acid]"
7,≤ 1000,"Cc1cccc(-c2cc(N3CCN(c4ncc(C(=O)O)cc4C)C[C@H]3C)nc(N3CCCC3C)n2)c1 (stereo partly drawn) [Example 69, 5-Methyl-6-{3-(R)-methyl-4-[2-(2-methyl-pyrrolidin-1-yl)-6-m-tolyl-pyrimidin-4-yl]-piperazin-1-yl}-nicotinic acid]"
8,≤ 1000,"Cc1cc(C(=O)O)cnc1N1CCN(c2cc(-c3ccncc3)nc(N3CCCC3C)n2)[C@H](C)C1 (stereo partly drawn) [Example 70, 5-Methyl-6-{3-(R)-methyl-4-[2-(2-methyl-pyrrolidin-1-yl)-6-pyridin-4-yl-pyrimidin-4-yl]-piperazin-1-yl}-nicotinic acid]"
9,≤ 1000,"Cc1cc(CO)cnc1N1CCN(c2cc(-c3ccccc3)nc(N3CCCC3C)n2)CC1 (centres unmarked) [Example 71, (5-Methyl-6-{4-[2-(2-methyl-pyrrolidin-1-yl)-6-phenyl-pyrimidin-4-yl]-piperazin-1-yl}-pyridin-3-yl)-methanol]"
10,≤ 1000,"Cc1cccc(-c2cc(N3CCN(c4ncc(CO)cc4C)CC3)nc(N3CCCC3C)n2)c1 (centres unmarked) [Example 72, (5-Methyl-6-{4-[2-(2-methyl-pyrrolidin-1-yl)-6-m-tolyl-pyrimidin-4-yl]-piperazin-1-yl}-pyridin-3-yl)-methanol]"
11,≤ 1000,"Cc1cc(CO)cnc1N1CCN(c2cc(-c3ccncc3)nc(N3CCCC3C)n2)CC1 (centres unmarked) [Example 73, (5-Methyl-6-{4-[2-(2-methyl-pyrrolidin-1-yl)-6-pyridin-4-yl-pyrimidin-4-yl]-piperazin-1-yl}-pyridin-3-yl)-methanol]"
12,≤ 1000,"Cc1cc(CO)cnc1N1CCN(c2cc(-c3ccnc(C(C)C)c3)nc(N3CCCC3C)n2)CC1 (centres unmarked) [Example 74, (6-{4-[6-(2-Isopropyl-pyridin-4-yl)-2-(2-methyl-pyrrolidin-1-yl)-pyrimidin-4-yl]-piperazin-1-yl}-5-methyl-pyridin-3-yl)-methanol]"
13,≤ 1000,"Cc1cc(C(=O)O)cnc1N1CCN(c2cc(-c3ccccc3)nc(N3CCCC3C)n2)CC1 (centres unmarked) [Example 75, 5-Methyl-6-{4-[2-(2-methyl-pyrrolidin-1-yl)-6-phenyl-pyrimidin-4-yl]-piperazin-1-yl}-nicotinic acid]"
14,≤ 1000,"Cc1cccc(-c2cc(N3CCN(c4ncc(C(=O)O)cc4C)CC3)nc(N3CCCC3C)n2)c1 (centres unmarked) [Example 76, 5-Methyl-6-{4-[2-(2-methyl-pyrrolidin-1-yl)-6-m-tolyl-pyrimidin-4-yl]-piperazin-1-yl}-nicotinic acid]"
15,≤ 1000,"Cc1cc(C(=O)O)cnc1N1CCN(c2cc(-c3ccncc3)nc(N3CCCC3C)n2)CC1 (centres unmarked) [Example 77, 5-Methyl-6-{4-[2-(2-methyl-pyrrolidin-1-yl)-6-pyridin-4-yl-pyrimidin-4-yl]-piperazin-1-yl}-nicotinic acid]"
16,≤ 1000,"Cc1cc(C(=O)O)cnc1N1CCN(c2cc(-c3ccnc(C(C)C)c3)nc(N3CCCC3C)n2)CC1 (centres unmarked) [Example 78, 6-{4-[6-(2-Isopropyl-pyridin-4-yl)-2-(2-methyl-pyrrolidin-1-yl)-pyrimidin-4-yl]-piperazin-1-yl}-5-methyl-nicotinic acid]"

row,IC50 [nM],Compound
1,≤ 1000,"CCOC(=O)c1cnc(N2CCN(c3cc(-c4ccc(F)c(Cl)c4)ncn3)[C@H](C)C2)c(Cl)c1 [Example 79, 5-Chloro-6-{4-[6-(3-chloro-4-fluoro-phenyl)-pyrimidin-4-yl]-3-(R)-methyl-piperazin-1-yl}-nicotinic acid ethyl ester]"
2,≤ 1000,"Cc1cc(C(=O)O)cnc1N1CCN(c2cc(-c3ccnc(C(C)C)c3)nc(N3CCCC3C)n2)[C@H](C)C1 (stereo partly drawn) [Example 80, 6-{4-[6-(2-Isopropyl-pyridin-4-yl)-2-(2-methyl-pyrrolidin-1-yl)-pyrimidin-4-yl]-3-(R)-methyl-piperazin-1-yl}-5-methyl-nicotinic acid]"
3,≤ 1000,"Cc1cc(C(=O)O)cnc1N1CCN(c2cc(-c3ccc(F)cc3)nc(N(C)C)n2)[C@H](C)C1 [Example 81, 6-{4-[2-Dimethylamino-6-(4-fluoro-phenyl) - pyrimidin-4-yl]-3-(R)-methyl-piperazin-1-yl}-5-methyl-nicotinic acid]"
4,≤ 1000,"Cc1cc(C(N)=O)cnc1N1CCN(c2cc(-c3ccccc3)nc(N3CCCC3C)n2)[C@H](C)C1 (stereo partly drawn) [Example 82, 5-Methyl-6-{3-(R)-methyl-4-[2-(2-methyl-pyrrolidin-1-yl)-6-phenyl-pyrimidin-4-yl]-piperazin-1-yl}-nicotinamide]"
5,≤ 1000,"Cc1cc(C(N)=O)cnc1N1CCN(c2cc(-c3ccc(F)cc3)nc(N(C)C)n2)[C@H](C)C1 [Example 83, 6-{4-[2-Dimethylamino-6-(4-fluoro-phenyl)-pyrimidin-4-yl]-3-(R)-mcthyl-piperazin-1-yl}-5-methyl-nicotinamide]"
6,≤ 1000,"Cc1cc(C(N)=O)cnc1N1CCN(c2cc(-c3ccccc3)nc(N(C)C)n2)[C@H](C)C1 [Example 84, 6-[4-(2-Dimethylamino-6-phenyl-pyrimidin-4-yl)-3-(R)-methyl-piperazin-1-yl]-5-methyl-nicotinamide]"
7,≤ 1000,"Cc1cc(C(N)=O)cnc1N1CCN(c2cc(-c3ccncc3)nc(N(C)C)n2)[C@H](C)C1 [Example 85, 6-[4-(2-Dimethylamino-6-pyridin-4-yl-pyrimidin-4-yl)-3-(R)-methyl-piperazin-1-yl]-5-methyl-nicotinamide]"
8,≤ 1000,"C[C@@H]1CN(c2ncc(C(N)=O)cc2Cl)CCN1c1cc(-c2ccc(F)c(Cl)c2)ncn1 [Example 86, 5-Chloro-6-{4-[6-(3-chloro-4-fluoro-phenyl)-pyrimidin-4-yl]-3-(R)-methyl-piperazin-1-yl}-nicotinamide]"
9,≤ 1000,"Cc1cc(C(N)=O)cnc1N1CCN(c2cc(-c3ccccc3)nc(N3CCCC3C)n2)CC1 (centres unmarked) [Example 87, 5-Methyl-6-{4-[2-(2-methyl-pyrrolidin-1-yl)-6-phenyl-pyrimidin-4-yl]-piperazin-1-yl}-nicotinamide]"
10,≤ 1000,"Cc1cccc(-c2cc(N3CCN(c4ncc(C(N)=O)cc4C)CC3)nc(N3CCCC3C)n2)c1 (centres unmarked) [Example 88, 5-Methyl-6-{4-[2-(2-methyl-pyrrolidin-1-yl)-6-m-tolyl-pyrimidin-4-yl]-piperazin-1-yl}-nicotinamide]"
11,≤ 1000,"Cc1cc(C(N)=O)cnc1N1CCN(c2cc(-c3ccncc3)nc(N3CCCC3C)n2)CC1 (centres unmarked) [Example 89, 5-Methyl-6-{4-[2-(2-methyl-pyrrolidin-1-yl)-6-pyridin-4-yl-pyrimidin-4-yl]-piperazin-1-yl}-nicotinamide]"
12,≤ 1000,"Cc1cc(C(N)=O)cnc1N1CCN(c2cc(-c3ccnc(C(C)C)c3)nc(N3CCCC3C)n2)CC1 (centres unmarked) [Example 90, 6-{4-[6-(2-Isopropyl-pyridin-4-yl)-2-(2-methyl-pyrrolidin-1-yl)-pyrimidin-4-yl]-piperazin-1-yl}-5-methyl-nicotinamide]"
13,≤ 1000,"Cc1cc(C(=N)N)cnc1N1CCN(c2cc(-c3ccc(F)cc3)nc(N3CCCC3C)n2)CC1 (centres unmarked) [Example 91, 6-{4-[6-(4-fluorophenyl)-2-(2-methylpyrrolidin-1-yl)pyrimidin-4-yl]piperazin-1-yl}-5-methylpyridine-3-carboximidamide]"
14,≤ 1000,"C[C@@H]1CCCN1c1nc(-c2ccc(F)cc2)cc(N2CCN(c3ncc(C(=O)O)cc3Cl)CC2)n1 [Example 92, 5-Chloro-6-{4-[6-(4-fluoro-phenyl)-2-(2-(R)-methyl-pyrrolidin-1-yl)-pyrimidin-4-yl]-piperazin-1-yl}-nicotinic acid]"
15,≤ 1000,"C[C@@H]1CCCN1c1nc(-c2ccc(F)cc2)cc(N2CCN(c3ncc(CC(=O)O)cc3Cl)CC2)n1 [Example 93, (5-Chloro-6-{4-[6-(4-fluoro-phenyl)-2-(2-(R)-methyl-pyrrolidin-1-yl)-pyrimidin-4-yl]-piperazin-1-yl}-pyridin-3-yl)-acetic acid]"
16,≤ 1000,"C[C@@H]1CN(c2ncc(C(=O)O)cc2Cl)CCN1c1cc(-c2ccc(F)cc2)nc(N2CCC[C@H]2C)n1 [Example 94, 5-Chloro-6-{4-[6-(4-fluoro-phenyl)-2-(2-(R)-methyl-pyrrolidin-1-yl) - pyrimidin-4-yl]-3-(R)-methyl-piperazin-1-yl} - nicotinic acid]"
